Reference: patent US20220363623A1, “IMAGING AND THERAPEUTIC COMPOSITIONS” (priority 2019, published 2022)

How the values were obtained:
LNCap cells = assay: Cell binding and internalization studies in LNCap cells; type: cell-based, human
Method: (§1) Cell binding and internalization studies. LNCap cells (150,000/well) were plated in RPMI 1640 medium containing 10% FBS into wells of a 24 well plate pre-coated with 0.05% poly-L-lysine and incubated overnight at 37° C. and 5% CO2. The following day cells were washed twice with PBS and incubated for 1 hour at 37° C. in 1 mL per well internalisation buffer (MEM, 1% FBS). The buffer was then replaced with 1 ml per well of a warmed solution containing 0.5 μCi ^89Zr-DFOsq-PSMA tracers in internalisation buffer. Cells were incubated in triplicate for 5, 15, 30 or 60 min at 37° C. and 5% CO2. At each time point, cells were washed twice with ice-cold PBS and the washes collected for counting (unbound fraction). Cells were then incubated twice for 10 min in saline containing 10 μM PMPA and each wash collected for counting (surface bound fraction). The cells were then solubilised in 1 M NaOH (internalised fraction). Total protein content was determined in this fraction using a BCA protein assay kit (Pierce). A Perkin Elmer 2480 Wizard automatic gamma counter was then used to measure Zr-89 radioactivity in unbound, surface bound and internalised fractions. Surface bound and internalised fractions were expressed as percentage of total added radioactivity per mg of protein. Non-specific membrane binding and internalisation was determined by incubating cells with the ^89Zr-DFOSq-PSMA tracers in the presence of excess (10 μM) PMPA. ^89Zr-DFOSq-PSMA tracers uptake at 60 min was also determined in DU145 cells (seeded at 125,000 cells/well), a PSMA negative cell line. The raw data was analysed using GraphPad Prism 7.

DU145 cells = assay: Tracer uptake in DU145 cells, a PSMA negative cell line; type: cell-based; details: 60 min, in words
Method: as §1, with “At each time point, cells were washed twice with ice-cold PBS and the washes collected for counting (unbound fraction). Cells were then incubated twice for 10 min in saline containing 10 μM PMPA and each wash collected for counting (surface bound fraction). The cells were then solubilised in 1 M NaOH (internalised fraction).” left out

in vivo = assay: in vivo; set-up: species or system mice; details: male, mouse, iv, total radioactivity
Method: PET-CT imaging and Biodistribution. Male Balb/c nude mice (age 8.5 weeks) or Male NSG mice (age 12 weeks) were inoculated subcutaneously on the right flank with 6×10^6 LNCap cells in PBS:Matrigel (1:1). Mice were weighed and tumours measured twice weekly using electronic callipers. Tumour volume (mm^3) was calculated as length×width×height×π/6. Mice were assigned for imaging and biodistribution studies (tumour volumes: 85-450 mm3). ^89Zr-DFOSq-PSMA tracers were then administered intravenously by tail vein injection to 6 mice. At 1, 2, 4 and 18 hr post injection three mice were anaesthetised using isoflurane and placed on the imaging bed of a G8 PET/CT scanner (Perkin Elmer). A CT scan was performed and followed immediately by a 10 min static PET scan. PET images were reconstructed using the maximal likelihood and expectation maximization (ML-EM) algorithm. PET Images were analysed using VivoQuant (Invicro) and Tumour SUVmax or Tumour SUVmax/background average (TBR) determined. After imaging at 18 hr mice were euthanised and selected tissues were excised, weighed and counted using a Capintec (Captus 4000e) gamma counter. A separate cohort of 3 mice was harvested at 1 hr post injection for biodistribution analysis as above. The data was analysed using GraphPad Prism 7 and differences between tracers analysed using a t-test.
^89Zr Labelled tracers: The ^89Zr radiolabelled PSMA tracers were injected intravenously via tail vein to LNCaP (human PSMA expressing prostate cancer cell line) tumour bearing mice. At 1, 2, 4 and 18 h post-injection the mice were anaesthetised with isoflurane and imaged over 10 min. The representative PET images of mice injected with ^89Zr radiolabelled PSMA tracers at 1 and 18 hr are shown in FIG. 1 and quantitation of the Tumour SUVmax for each tracer is shown in FIG. 2a. […] There was a trend for higher tumour SUVmax for (4) tracer compared to all other tracers at all time points. […] A comparison of tumour uptake values is shown in FIG. 2b and the tissue biodistribution data for the tracers at 1 and 18 hr is summarised in FIG. 3.
^68Ga Labelled tracers: Representative PET images of mice injected with ^68Ga(1) and ^68Ga(4) are shown in FIG. 4 and quantitation of the tumour SUVmax is shown in FIG. 5a. […] Tumour uptake of ^68Ga(4) was 1.6 and 1.8 fold higher than ^68Ga(1) at 1 and 2 hr p.i., respectively. This is consistent with the biodistribution results where tumour % ID/g for ^68Ga(4) was higher than ^68Ga(1) at 1 hr (10.8±1.3 vs 6.5±0.4) and at 2.5 hr (8.6±1.0 vs 4.1±0.5) p.i. […] (6.5±0.4% ID/g at 1 hr vs 4.1±0.5% ID/g at 2.5 hr). In contrast, there was no significant change in ^68Ga(4) tumour retention at 1 and 2.5 p.i. (10.8±1.3% ID/g vs […], FIG. 5b).

Question: For `CC(=O)N(O)CCCCCNC(=O)CCC(=O)N(O)CCCCCNC(=O)CCC(=O)N(O)CCCCCNc1c(NCc2ccc(C(=O)NCCCCC(NC(=O)NC(CCC(=O)O)C(=O)O)C(=O)O)cc2)c(=O)c1=O` (stereo not drawn) [(1), DFOSq-PhPSMA ligand], which “Cell Uptake % AR/mg protein (60 min) internalized” value (LNCap cells; 89Zr tracers, 60 min, 37° C.) is on record?
Answer: 7 % AR/mg protein

Question: What about the “Internalised activity in the presence of excess PMPA” value (LNCap cells; excess (10 μM) PMPA) of the same compound?
Answer: up to 5 % AR/mg protein

Question: What about the Surface binding (LNCap cells; presence and absence of excess PMPA, all timepoints) of the same compound?
Answer: 2 % AR/mg protein

Question: What about the “Binding in DU145, PSMA negative cell line” value (DU145 cells) of the same compound?
Answer: Minimal binding

Question: What about the tissue uptake at 1 h (in vivo; Tumour Uptake % ID/g 1 h pi) of the same compound?
Answer: 5.4 %ID/g

Question: What about the tissue uptake at 18 h (in vivo; Tumour Uptake % ID/g 18 h pi) of the same compound?
Answer: 2.2 %ID/g
